Measurements published in patent publication US10272055B2, “Therapeutic compounds and methods” (Regents of the University of Minnesota, priority 2014, dated 2019).
Several values for one entry are separate records, joined by “and”; a condition that tells them apart may be missing. Identical values can stand only once. Entries after “also recorded” stand apart in the source; their conditions may differ.

Assays:
[1] = target: CYP3A4 epoxygenase (Homo sapiens, UniProt P08684); test: CYP3A4 Supersome epoxygenase assay: EET synthesis from arachidonic acid, LC-ESI-MS/MS
Sequence of CYP3A4 epoxygenase (P08684 whole entry): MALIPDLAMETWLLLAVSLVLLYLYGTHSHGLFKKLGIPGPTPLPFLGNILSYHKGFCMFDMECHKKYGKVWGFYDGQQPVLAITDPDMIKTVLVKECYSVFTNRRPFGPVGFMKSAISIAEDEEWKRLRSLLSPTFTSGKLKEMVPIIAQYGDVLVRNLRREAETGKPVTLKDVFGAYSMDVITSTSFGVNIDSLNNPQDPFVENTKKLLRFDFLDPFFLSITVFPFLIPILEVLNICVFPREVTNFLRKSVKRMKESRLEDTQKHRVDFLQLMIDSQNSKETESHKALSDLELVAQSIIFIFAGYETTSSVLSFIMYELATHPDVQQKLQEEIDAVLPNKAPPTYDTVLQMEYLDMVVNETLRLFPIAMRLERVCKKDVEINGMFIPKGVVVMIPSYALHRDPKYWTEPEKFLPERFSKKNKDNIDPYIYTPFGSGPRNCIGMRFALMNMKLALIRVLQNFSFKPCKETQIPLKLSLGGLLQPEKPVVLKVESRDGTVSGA
Description: Measurements are reported as percentage of control reactions performed with vehicle but no compound. A ^13C-EET recovery standard was used to control for recovery of EETs from extractions. […] EET measurements in these Supersome experiments are expressed as percentage of control reactions. Absolute EET measurements are determined by subtraction of regioisomer values in a baseline reaction lacking NADPH. Measurements were performed in triplicate and values are expressed as the mean±SD.
After the reaction, EETs were then extracted with 1 mL dichloromethane and reconstituted in methanol and analyzed by LC-ESI-MS/MS.

[2] = system: MCF-7 cell line; test: MTT growth assay, MCF-7 line; format: cell-based
Description: The growth of the MCF-7 line was measured by MTT assay at 24 hours. Cells were plated in complete media in the presence of serum (10% FBS) and cultured at 37° C. with 5% CO2 and treated with the biguanide or DMSO vehicle. Growth was measured at 24 hours by MTT assay.
Cells were plated in complete media in the presence of serum (10% FBS) and cultured at 37° C. with 5% CO2 and treated with HBB or DMSO vehicle. Growth was measured at 24 hours by MTT assay.

[3] = system: MDA-MB-231; test: MTT growth assay, MDA-MB-231 line; format: cell-based; settings: MTT assay at 24 hours, 10% FBS
Description: FIG. 30 illustrates HBB inhibits proliferation of MCF7 and MDA-MB-231 lines. Cells were plated in complete media in the presence of serum (10% FBS) and cultured at 37° C. with 5% CO2 and treated with HBB or DMSO vehicle. Growth was measured at 24 hours by MTT assay. Results were converted to percent growth of control and represented as mean±S.E. (n=8).

[4] = target: CYP3A4 nanodiscs (Homo sapiens, UniProt P08684); test: CYP3A4 nanodisc spin shift titration; format: binding; settings: vs metformin
Sequence of CYP3A4 nanodiscs (P08684 whole entry): as above

[5] = system: AMPK; test: AMPK phosphorylation Western blot in MCF7; format: cell-based
Description: Western blotting analysis was performed in triplicate.
Cells were plated in complete media in the presence of serum (10% FBS) and cultured at 37° C. with 5% CO2 and treated with biguanides for 6 hours before harvesting. Total protein was extracted and analyzed by Western-blotting with GAPDH as an internal control.
Cells were plated in complete media in the presence of serum (10% FBS) and cultured at 37° C. with 5% CO2 and treated with 14,15-EET or EtOH control for 24 hours before harvesting. Total protein was extracted and analyzed by Western-blotting with GAPDH as an internal control.

[6] = system: STAT3; test: STAT3 phosphorylation Western blot in MCF7; format: cell-based
Description: Western blotting analysis was performed (C=control, M=metform and H=HBB).
Total protein was extracted and analyzed by Western-blotting with GAPDH as an internal control.

[7] = system: MDA-MB-231 xenograft; test: MDA-MB-231 xenograft in nude mice; format: in vivo; settings: HBB 4 mg/kg ip daily vs PBS/vehicle
Description: FIG. 3A. MCF-7 xenograft with 3×10^6 cells in the 2nd mammary fat pad on day 0. HBB (4 mg/kg ip daily) (ν) or PBS (ρ) treatment began on day 1. * indicates P<0.05. FIG. 3B. MDAMB-231 xenograft with 1×10^6 cells in the 2nd mammary fat pad on day 0. HBB (4 mg/kg ip daily) (ν) or PBS (ρ) treatment began on day 1. N=20 mice per arm for each study; error bars are SEM.
FIG. 44A. Nude mice were inoculated with 3×10^6 MCF-7 cells and treated with vehicle (Δ) HBB at the MTD (4 mg/kg/day ip) (▪). (* indicates P<0.05). Error bars are SEM. […] The dose limiting toxicity was weight loss. At the MTD there was a well-tolerated 4% reduction of weight at 42 days (P<0.0001; data not shown). FIG. 44B. Nude mice were inoculated with 1×10^6MDA-MB-231 cells and treated with HBB at the MTD (4 mg/kg/day ip).

[8] = Tolerability in xenograft mice (MTD, weight); settings: mouse, in vivo
Excerpt: […]. (* indicates P<0.05). Error bars are SEM. […] The dose limiting toxicity was weight loss. At the MTD there was a well-tolerated 4% reduction of weight at 42 days (P<0.0001; data not shown). […].

[9] = HBB concentration after ip administration, MCF-7 model; parameters: species or system mice; settings: nude, mouse, in vivo, intraperitoneal, 4 mg/kg/day ip, read-out: Concentration of HBB 1 hour following ip administration
Description: Concentration of HBB 1 hour following ip administration was 0.527 uM as measured in the MCF-7 model. HBB was administered ip at 4 mg/kg/day in both models, which is the MTD for that dose, route and schedule.

[10] = system: MCF7; test: Cell cycle analysis by flow cytometry, MCF7; format: cell-based; settings: MCF7, HBB 20 uM, 6 hours
Description: (§1) Cells in log phase growth treated with HBB (20 uM) or DMSO for 6 hours were trypsinized and fixed in 70% ethanol at 4° C. overnight. The cells were washed with cold PBS and resuspended in Nicoletti buffer (50 μg/ml propidium iodide, 0.1% Triton X-100, 0.1% sodium citrate, pH 7.4, and 1 mg/ml RNase). The samples were then analyzed by flow cytometry (BD Biosciences), and data were analyzed using FlowJo software (Tree Star). Representative profile are shown.

[11] = system: MDA-MB-231; test: Cell cycle analysis by flow cytometry, MDA-MB-231; format: cell-based; settings: MDA-MB-231, HBB 20 uM, 6 hours
Description: as §1

[12] = system: MCF-7; test: HBB plus paclitaxel combination, MTT, Chou-Talalay analysis; format: cell-based; settings: MCF-7, HBB vs paclitaxel = 800:1, 24 hours
Description: Cells were seeded into 96-well plates at 3,000 cells/well and grown over night. The cells were then treated with different doses of HBB, paclitaxel and combination of the two agents at a constant ratio (HBB vs paclitaxel=800:1). The treatments were conducted for each condition in quadruplicate. […] Combined dose-response curves were fitted to Chou-Talalay lines, and Chou-Talalay combination indices (CIs) were calculated for each fraction affected (Fa) using the equation CI=(D1/Dx1)+(D2/Dx2)+(D1)(D2)/[(Dx1)(Dx2)], where Dx1 and Dx2 are the HBB and paclitaxel doses, respectively, that are required for achieving a particular Fa, and D1 and D2 are the doses of the two agents (combined treatment) required for achieving the same Fa. For each Fa, CI values of 0.8 and 1.2 are cutoffs for synergy and antagonism, respectively (See FIG. 42).

For `CCCCCCNC(=N)NC(=N)NCc1ccccc1` [HBB, N1-hexyl-N5-benzyl biguanide], the IC50 ([1]; IC50, inhibition of CYP3A4 epoxygenase) was 110 µM, the “fold more potent than metformin, CYP3A4 epoxygenase” value ([1]; vs metformin) was 50 fold and ~40 fold and the IC50 ([2]; MTT assay at 24 hours, 10% FBS, read-out: IC50, MCF-7 growth) was ~20 µM and 20 µM. The “fold more potent than metformin, MCF-7 growth” value ([2]; vs metformin) was about 250 fold, the IC50 [3] was 22.5 µM and the “fold more potent than metformin, CYP3A4 nanodisc spin shift” value [4] was about 4 fold. The “AMPK phosphorylation relative to control” value ([5]; MCF7, 6 hours, metformin, buformin, phenformin 1 mM, HBB 20 uM) was “more potently activates AMPK; also recorded: increased phosphorylation of AMPK”, the “fold more potent than metformin, activation of AMPK phosphorylation” value ([5]; vs metformin) was about 50 fold and the “STAT3 phosphorylation relative to control” value ([6]; MCF7, 6 hours, HBB 20 uM, metformin 10 uM) was “decreased phosphorylation of STAT3”. The “fold more potent than metformin, inhibition of Stat3 phosphorylation” value ([6]; vs metformin) was about 50 fold, the “tumor growth, MDA-MB-231 xenograft” value [7] was “tumor growth wasn't inhibited; also recorded: no significant difference between the HBB and vehicle growth curves” and the dose limiting toxicity [8] was “weight loss”. For the same molecule, the MTD at 42 days ([8]; nude, ip daily, read-out: maximum tolerated dose (MTD)) was 4 mg/kg, the concentration at 1 h [9] was 527 nM and the cell cycle arrest [10] was “induces G0/G1 and G2/M cell cycle arrest”. The cell cycle arrest [11] was “induces G0/G1 and G2/M cell cycle arrest” and the “combination index plot, HBB with Taxol” value [12] was “synergy”.
